These are literature values, as cited in US12539267B2, “Product for dyeing keratinous material, containing aminosilicone, a chromophoric compound and organic carbonic acid ester” (Henkel AG & Co. KGaA, priority 2019, dated 2026).

For this data set the following is noted: 25° C.

In the case of `O=S(=O)([O-])c1ccc(N=Nc2c(O)ccc3ccccc23)cc1.[Na+]` [Acid Orange 7, sodium salt of 4-[(2-hydroxy-1-naphthyl)azo]benzene sulphonate], the solubility in water result is given as “more than 7 g/L”. Consider `Nc1cc(S(=O)(=O)[O-])cc2cc(S(=O)(=O)[O-])c(N=Nc3ccccc3)c(O)c12.[Na+].[Na+]` [Acid Red 33, diantrium salt of 5-amino-4-hydroxy-3-(phenylazo)-naphthalene-2,7-disulphonate], for which the solubility in water is 2500 µg/mL. With `O=C([O-])c1c(Cl)c(Cl)c(Cl)c(Cl)c1-c1c2c(Br)cc(=O)c(Br)c-2oc2c(Br)c(O)cc(Br)c12.O=C([O-])c1c(Cl)c(Cl)c(Cl)c(Cl)c1-c1c2c(Br)cc(=O)c(Br)c-2oc2c(Br)c(O)cc(Br)c12.[Na+].[Na+]` [Acid Red 92, disodium salt of 3,4,5,6-tetrachloro-2-(1,4,5,8-tetrabromo-6-hydroxy-3-oxoxanthen-9-yl)benzoic acid], the solubility in water entry is “greater than 10 g/L”. In the case of `O=C([O-])C1=NN(c2ccc(S(=O)(=O)[O-])cc2)C(=O)C1N=Nc1ccc(S(=O)(=O)[O-])cc1.[Na+].[Na+].[Na+]` (stereo not shown) [Acid Yellow 23, trisodium salt of 4,5-dihydro-5-oxo-1-(4-sulfophenyl)-4-((4-sulfophenyl)azo)-1H-pyrazole-3-carboxylic acid], the “solubility in water (in words)” value is on record as “highly soluble in water”.
